Consider twelve molecules from patent US12533362B2, “Methods for treating diseases associated with ciliopathies” (ALEXION PHARMACEUTICALS, INC., priority 2017, dated 2026).

In series [1] the test system is Nphp1−/− mice. As to the kind of experiment: retinal degeneration in Nphp1−/− mouse model. The series is classed as in vivo. The protocol: Homozygous deletion of NPHP1 is the most common cause of juvenile nephronophthisis 1. Homozygous or compound heterozygous mutations in NPHP1 are also associated with, for example, Joubert syndrome 4 (brain abnormalities) and Senior-Løken syndrome 1 (retinopathy). NPHP1 KO animals were generated to test whether taprenepag can be used to treat these diseases. To establish a CRISPR/Cas9-engineered Nphp1^−/− mouse model, single guide RNAs were injected in C57BL/6J embryos, and generated a 76 bp deletion encompassing the ATG in exon 1 of Nphp1. To characterize the natural history of Nphp1^−/− mouse model, histochemical staining of kidney and retina sections was performed from Nphp1^+/+ and Nphp1^−/− mice.
To evaluate the retinal degeneration, a semi-automated tool was developed to provide detection and quantitative thickness measurements of each retinal layers at five distant plans manually marked on the retinal section (FIG. 38B). Semi-automated quantification analysis confirms a clear decrease in thickness of photoreceptors layers ONL, IS and OS (FIG. 38C).
To assess the effect of Nphp1 deletion on the structural organization of photoreceptors in this model, immunohistochemistry (IH) analysis was performed on retina sections from Nphp1^+/+ and Nphp1^−/− mice (FIGS. 39A and B). Tissues were fixed and fluorescence-labeled with DAPI (for nuclei staining), anti-rhodopsin antibody (for OS staining), and anti-Cep290 antibody (for connecting cilia staining) or PNA (for OS and IS staining), detected using immunofluorescence microscopy.
To assess the effect of Nphp1 deletion on the functionality of photoreceptors, electroretinogram (ERG) was performed on Nphp1^+/+ and Nphp1^−/− mice, under light stimuli of different intensities (FIGS. 40A-C). FIGS. 40A and B show ERG a- and b-waves recorded from the same animals at P21, for a given light intensity. In contrast with Nphp1^+/+ mice, Nphp1^−/− mice display drastically lower ERG amplitudes at a given intensity of light stimulus. […]

For series [2], the system named is zebrafish NPHP4 MO. As to the kind of experiment: zebrafish NPHP4 morpholino (MO) model. It counts as in vivo. The protocol:
Briefly, wild-type Tg(wt1b:GFP) transgenic zebrafish embryos were injected with morpholino (e.g., nphp4 ATG MO) at one-cell stage. At 8 hours post-fertilization (hpf), injected embryos were treated with drug or vehicle in PTU-egg water (1 mL in 12-well plates). At 24 hpf, drug treatment was renewed, and pronase was added at 36 hpf for chorion removal.

In series [3] the test system is NPHP patient-derived cells. As to the kind of experiment: automated cilia-based ciliogenesis assay in NPHP patient-derived cells. It counts as cell-based, human. The conditions noted are these: for effect on ciliogenesis (percentage of ciliated cells) as compared with DMSO: drug screening, various tested concentrations, FIG. 5 / FIG. 6; for restoration of ciliogenesis at the highest concentration: 40 μM dinoprostone and 20 μM dmPGE2, may be due to cytotoxicity; for ciliogenesis restorative effect: FIG. 11A. From the text:
(§1) To identify compounds for treating diseases associated with ciliopathies such as, for example, NPHP, NPHP patient-derived cells were obtained and cell lines were established. Briefly, peeled renal epithelial cells, which are mostly proximal tubule cells (tbc) recovered from urine of NPHP1-deficient patients, were immortalized by retroviral gene transfer of SV40 T antigen. Cells were fixed and fluorescence-labeled with Hoechst (for nuclei staining), anti-γ-tubulin antibody (for basal bodies staining), and anti-ARL13B antibody (for cilia staining) for detection using immunofluorescence microscopy.
(§2) Briefly, NPHP patient-derived cells and control cells were cultured in complete media, at 39C (non-permissive temperature for SV40 expression), followed by automatic cilia analysis using immunofluorescence microscopy to measure ciliogenesis, e.g., in terms of % cilia. A spinning disk platform may be used for drug screening (FIG. 5, A-J) and ciliogenesis analysis of G3 multi-OMICs dataset (FIG. 29, A-E).
The cilia-based assay described above may be used to identify compounds that restore ciliogenesis. […] Automated random acquisition of 35 images per well may be performed, for example. Each image may have z-stack of 10 images taken at <1 μm intervals.

Series [4] is described as follows: pharmacokinetics study in wild type mice. The conditions noted are these: intraperitoneal; taprenepag isopropyl 1 mg/kg or 8 mg/kg, taprenepag 8 mg/kg; different time points.
Method: After intraperitoneal injections of taprenepag isopropyl (1 mg/kg or 8 mg/kg) or taprenepag (8 mg/kg), the concentrations of these compounds in various organs were determined at different time points.
The target of series [5] is EP4 receptor (Homo sapiens, UniProt P35408). Conditions: cited from earlier work.
Chain of EP4 receptor (P35408 whole entry): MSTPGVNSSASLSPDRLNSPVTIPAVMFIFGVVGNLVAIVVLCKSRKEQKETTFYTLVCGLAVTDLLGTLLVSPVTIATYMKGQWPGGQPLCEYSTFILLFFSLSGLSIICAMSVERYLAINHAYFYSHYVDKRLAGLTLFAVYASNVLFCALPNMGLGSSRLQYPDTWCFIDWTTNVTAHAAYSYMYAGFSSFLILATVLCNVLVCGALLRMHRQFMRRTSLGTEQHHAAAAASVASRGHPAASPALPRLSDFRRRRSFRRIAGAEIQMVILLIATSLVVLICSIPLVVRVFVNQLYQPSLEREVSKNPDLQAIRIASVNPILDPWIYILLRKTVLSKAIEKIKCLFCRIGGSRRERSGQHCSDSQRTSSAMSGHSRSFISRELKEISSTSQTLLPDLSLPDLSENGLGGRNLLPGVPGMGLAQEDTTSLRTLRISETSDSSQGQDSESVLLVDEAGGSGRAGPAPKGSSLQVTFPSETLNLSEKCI
Series [6] concerns control normal epithelial cells. As to the kind of experiment: automated cilia-based ciliogenesis assay in control normal epithelial cells. The series is classed as cell-based, human. Conditions: control normal cells, FIG. 11A.
Source text: as §1, §2
The cilia-based assay described above may be used to identify compounds that restore ciliogenesis. […] Automated random acquisition of 35 images per well may be performed, for example. Each image may have z-stack of 10 images taken at <1 μm intervals. Consecutive imaging of nucleus (Hoechst at 461 nm), basal body (γ-tubulin at 555 nm) and cilia (ARL13b at 647 nm) may be obtained.

Series [7] deals with control cells. In words: exogenous PGE2 effect on cilia in control cells. It counts as cell-based. Conditions: addition of exogenous PGE2, FIG. 12.
The mark [8] stands for this setting: meta-analysis, multiple NPHP patient-derived cell lines.

Each structure is given as a SMILES string.

Regarding `O=C(O)COc1cccc(CN(Cc2ccc(-n3cccn3)cc2)S(=O)(=O)c2cccnc2)c1` [CP-544326, taprenepag], the “ONL/OPL retina layers thicknesses ratio” value in series [1] (18 mg/kg i.p. every 3 or 4 days from P6 until P21, vs vehicle, p<0.05 Mann-Whitney test) was “significantly prevents the decrease of ONL/OPL ratio”. In addition, the “rhodopsin mislocalization (Mean Green intensity in ONL)” value in series [1] (18 mg/kg i.p., vs vehicle, p<0.05 unpaired t-test) is “significantly prevented rhodopsin mislocalization”. Besides, the “electroretinogram a-wave amplitude of photoreceptor response” value in series [1] (18 mg/kg i.p., vs vehicle-treated Nphp1−/− mice) is on record as “slight improvement in the amplitude of photoreceptor response”. The “% severe, mild and normal pronephric cysts” value in series [2] (100 nM vs DMSO, p<0.01 Fischer's exact test) was “significantly reduces % severe pronephric cysts and increases % mild and normal pronephric cysts”. For the same molecule, the “ciliogenesis, dose response compared to DMSO” value in series [3] (FIG. 16B) is “restores ciliogenesis in a dose-dependent manner”. Also, the “ciliogenesis as compared with DMSO” value in series [3] (cell lines 1-09-P, 1-06-P1 and 1-06-P2 derived from NPHP1(del) patients, FIG. 17C) is on record as “increases ciliogenesis in multiple cell lines”. For the same molecule, the “ciliogenesis, meta-analysis” value in series [3] (compared with alprostadil, FIG. 16A) is “restores ciliogenesis to a similar level as alprostadil”. Also, in series [3] (setting [8]), the “linear regression pooled slope value of effect on ciliogenesis” value turned out to be 1.36 and the “linear regression range of slope values of effect on ciliogenesis” value was 1.245 to 1.532. Also, in series [3] (semi-log representation of ciliogenesis titration, FIG. 16C, read-out: EC50 for EP2 from CP-544326 titration), the EC50 was found to be 11 nM. Besides, in series [4], the “stability in vivo (concentrations in plasma, kidney, testis, retina, vitreous humor)” value is given as “more stable than taprenepag isopropyl”.
`Cc1cccc([C@@H](C)[C@H](O)/C=C/[C@@H]2[C@@H]3[C@H](C[C@H]2O)O/C(=C\CCCc2nnn[nH]2)C3(F)F)c1` [KAG-308]: the “EP4 agonist potency” value in series [5] is “low nanomolar EP4-agonist”.
Consider `O=C1CC[C@H](/C=C/[C@@H](O)C(F)(F)c2ccccc2)N1CCCCCCc1nnn[nH]1` [L902,688], for which the effect on ciliogenesis result in series [3] (prostanoid EP4 agonist, FIG. 17A) is given as “does not significantly affect ciliogenesis”.
Take `COc1ccc(C2CC(c3ccccc3)=NN2c2ccc(S(N)(=O)=O)cc2)cc1` (stereo not drawn) [ML-141]: the “effect on ciliogenesis (percentage of ciliated cells) as compared with DMSO” value in series [3] is on record as “did not have a significant effect on ciliogenesis”.
With `CCCCC[C@H](O)/C=C/[C@H]1[C@H](O)CC(=O)[C@@H]1C/C=C\CCCC(=O)O` [dinoprostone, prostaglandin E2], the “% severe, mild and normal pronephric cysts” value in series [2] (50 μM vs DMSO, p<0.008 Fischer's exact test) is “significantly reduced % severe and mild pronephric cysts and increased % normal pronephric cysts”. Also, the “% normal body axis curvature” value in series [2] (50 μM vs DMSO, p=0.0066 Fischer's exact test) was “significantly increases % normal body axis curvature”. Also, in series [2] (50 μM vs DMSO, p=0.0577 t-test), the dorsal curvature entry was “did not significantly affect dorsal curvature”. Besides, the effect on ciliogenesis result in series [6] is “no significant effect was observed”. In addition, in series [3], the “restoration of ciliogenesis at the highest concentration” value is given as “slight decrease in restoration of ciliogenesis” and the ciliogenesis restorative effect entry is reported as “ciliogenesis restorative effects similar to that of alprostadil”. For the same molecule, the “cilia length and percentages of ciliated cells” value in series [7] was “increased both cilia length and percentages of ciliated cells”.
On to `CCCCC(C)(C)[C@H](O)/C=C/[C@H]1[C@H](O)CC(=O)[C@@H]1C/C=C\CCCC(=O)O` [dmPGE2, 16,16-dimethyl-PGE2], for which the effect on ciliogenesis entry in series [6] is on record as “no significant effect was observed”. Also, in series [3], the “restoration of ciliogenesis at the highest concentration” value is listed as “slight decrease in restoration of ciliogenesis” and the ciliogenesis restorative effect result was “ciliogenesis restorative effects similar to that of alprostadil”.
As to `CCN(CC)C(C)CN1c2ccccc2Sc2ccccc21` (stereo not drawn) [ethopropazine], in series [3], the “effect on ciliogenesis (percentage of ciliated cells) as compared with DMSO” value is given as “did not have a significant effect on ciliogenesis”.
On the same count and under the same terms, the entry for `O=C1c2c(O)ccc(O)c2C(=O)c2c(NCCNCCO)ccc(NCCNCCO)c21` [mitoxantrone] is “did not have a significant effect on ciliogenesis”; for `CC(=O)O[C@H]1C(=O)[C@@]2(C)[C@H]([C@H](OC(=O)c3ccccc3)[C@]3(O)C[C@H](OC(=O)[C@H](O)[C@@H](NC(=O)c4ccccc4)c4ccccc4)C(C)=C1C3(C)C)[C@]1(OC(C)=O)CO[C@@H]1C[C@@H]2O` [paclitaxel] it is “did not have a significant effect on ciliogenesis”.
Still for that read-out and setting: the entry for `CN(C)CCC(c1ccccc1)c1ccccn1` (stereo not drawn) [pheniramine] is “did not have a significant effect on ciliogenesis”; for `CN1[C@@H]2CC[C@H]1C[C@@H](OC(=O)c1c[nH]c3ccccc13)C2` [tropisetron] it is “did not have a significant effect on ciliogenesis”; for `COc1ccc(CCN(C)CCCC(C#N)(c2ccc(OC)c(OC)c2)C(C)C)cc1OC` (stereo not drawn) [verapamil] it is “did not have a significant effect on ciliogenesis”.
